Results: PubChem BioAssay (NCI)
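Grown in 96-well plates, cells were treated for 48 hours with each compound at five concentrations. Insufficient inhibition: endpoint recorded as highest concentration tested. At the GI50, growth is halved. TGI marks complete inhibition of growth.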

Key:
Assay in all cases: inhibition of tumour cell growth, NCI panel, 48 h
[1] = tested on: HCC-2998 colon
[2] = tested on: NCI-H23 lung
[3] = tested on: A498 renal
[4] = tested on: COLO 205 colon
[5] = tested on: NCI/ADR-RES ovarian
[6] = tested on: OVCAR-4 ovarian
[7] = tested on: DU-145 prostate
[8] = tested on: EKVX NSCLC
[9] = tested on: SF-268 CNS
[10] = tested on: SNB-19 CNS
[11] = tested on: CCRF-CEM leukemia
[12] = tested on: SF-539 CNS
[13] = tested on: CAKI-1 renal
[14] = tested on: SW-620 colon
[15] = tested on: UACC-257 melanoma
[16] = tested on: SK-MEL-28 melanoma
[17] = tested on: MCF7 breast
[18] = tested on: HCT-15 colon
[19] = tested on: MOLT-4 leukemia
[20] = tested on: SK-MEL-2 melanoma
[21] = tested on: ACHN renal
[22] = tested on: RPMI-8226 leukemia
[23] = tested on: PC-3 prostate
[24] = tested on: RXF 393 renal
[25] = tested on: HOP-62 NSCLC
[26] = tested on: 786-0 renal
[27] = tested on: SK-OV-3 ovarian
[28] = tested on: T-47D breast
[29] = tested on: OVCAR-3 ovarian
[30] = tested on: BT-549 breast
[31] = tested on: SK-MEL-5 melanoma
[32] = tested on: OVCAR-5 ovarian
[33] = tested on: U251 CNS
[34] = tested on: HT29 colon
[35] = tested on: IGROV1 ovarian
[36] = tested on: A549 NSCLC
[37] = tested on: HOP-92 NSCLC
[38] = tested on: NCI-H226 lung
[39] = tested on: SN12C renal
[40] = tested on: K-562 leukemia
[41] = tested on: SNB-75 CNS
[42] = tested on: LOX IMVI melanoma
[43] = tested on: UO-31 renal
[44] = tested on: MDA-MB-231 breast
[45] = tested on: HCT-116 colon
[46] = tested on: OVCAR-8 ovarian
[47] = tested on: HS 578T breast
[48] = tested on: KM12 colon
[49] = tested on: NCI-H460 lung
[50] = tested on: UACC-62 melanoma
[51] = tested on: SF-295 CNS
[52] = tested on: M14 melanoma
[53] = tested on: NCI-H522 lung
[54] = tested on: MDA-MB-435
[55] = tested on: SR leukemia
[56] = tested on: TK-10 renal
[57] = tested on: HL-60(TB) leukemia

Structure (SMILES): Nc1ccc2c(c1)Cc1cc(Cl)c(Cl)cc1-2
- GI50 [1]: 9.19 µM
- TGI [1]: > 100 µM
- GI50 [2]: > 100 µM
- TGI [2]: > 100 µM
- GI50 [3]: 4.78 µM
- TGI [3]: > 100 µM
- GI50 [4]: 22.2 µM
- TGI [4]: > 100 µM
- GI50 [5]: 62.2 µM
- TGI [5]: > 100 µM
- GI50 [6]: > 100 µM
- TGI [6]: > 100 µM
- GI50 [7]: 6.24 µM
- TGI [7]: > 100 µM
- GI50 [8]: 1.94 µM
- TGI [8]: 8.82 µM
- GI50 [9]: > 100 µM
- TGI [9]: > 100 µM
- GI50 [10]: 5.96 µM
- TGI [10]: > 100 µM
- GI50 [11]: 7.73 µM
- TGI [11]: > 100 µM
- GI50 [12]: 57.3 µM
- TGI [12]: > 100 µM
- GI50 [13]: 3.76 µM
- TGI [13]: > 100 µM
- GI50 [14]: 5.43 µM
- TGI [14]: > 100 µM
- GI50 [15]: > 100 µM
- TGI [15]: > 100 µM
- GI50 [16]: > 100 µM
- TGI [16]: > 100 µM
- GI50 [17]: 0.562 µM
- TGI [17]: > 100 µM
- GI50 [18]: 6.22 µM
- TGI [18]: > 100 µM
- GI50 [19]: > 100 µM
- TGI [19]: > 100 µM
- GI50 [20]: > 100 µM
- TGI [20]: > 100 µM
- GI50 [21]: 7.06 µM
- TGI [21]: > 100 µM
- GI50 [22]: 57.6 µM
- TGI [22]: > 100 µM
- GI50 [23]: > 100 µM
- TGI [23]: > 100 µM
- GI50 [24]: 6.07 µM
- TGI [24]: > 100 µM
- GI50 [25]: > 100 µM
- TGI [25]: > 100 µM
- GI50 [26]: > 100 µM
- TGI [26]: > 100 µM
- GI50 [27]: 8.03 µM
- TGI [27]: > 100 µM
- GI50 [28]: > 100 µM
- TGI [28]: > 100 µM
- GI50 [29]: 3.17 µM
- TGI [29]: 87.8 µM
- GI50 [30]: > 100 µM
- TGI [30]: > 100 µM
- GI50 [31]: 8.17 µM
- TGI [31]: > 100 µM
- GI50 [32]: > 100 µM
- TGI [32]: > 100 µM
- GI50 [33]: 5.56 µM
- TGI [33]: > 100 µM
- GI50 [34]: > 100 µM
- TGI [34]: > 100 µM
- GI50 [35]: 17.7 µM
- TGI [35]: > 100 µM
- GI50 [36]: 7.72 µM
- TGI [36]: > 100 µM
- GI50 [37]: 97.9 µM
- TGI [37]: > 100 µM
- GI50 [38]: > 100 µM
- TGI [38]: > 100 µM
- GI50 [39]: 11.9 µM
- TGI [39]: > 100 µM
- GI50 [40]: > 100 µM
- TGI [40]: > 100 µM
- GI50 [41]: 67.8 µM
- TGI [41]: > 100 µM
- GI50 [42]: 65.6 µM
- TGI [42]: > 100 µM
- GI50 [43]: 6.01 µM
- TGI [43]: > 100 µM
- GI50 [44]: 6.39 µM
- TGI [44]: > 100 µM
- GI50 [45]: 6.81 µM
- TGI [45]: > 100 µM
- GI50 [46]: > 100 µM
- TGI [46]: > 100 µM
- GI50 [47]: 5.79 µM
- TGI [47]: > 100 µM
- GI50 [48]: 7.05 µM
- TGI [48]: > 100 µM
- GI50 [49]: 5.12 µM
- TGI [49]: > 100 µM
- GI50 [50]: 12.8 µM
- TGI [50]: > 100 µM
- GI50 [51]: 2.25 µM
- TGI [51]: 7.15 µM
- GI50 [52]: 3.55 µM
- TGI [52]: > 100 µM
- GI50 [53]: > 100 µM
- TGI [53]: > 100 µM
- GI50 [54]: 1.77 µM
- TGI [54]: 4.51 µM
- GI50 [55]: 26.9 µM
- TGI [55]: > 100 µM
- GI50 [56]: > 100 µM
- TGI [56]: > 100 µM
- GI50 [57]: 55 µM
- TGI [57]: > 100 µM
